# Target: T1, FGFR1-GST (Homo sapiens, UniProt P11362)
# T1 construct: GST; made in house
# Experiment: FGFR-1 TR-FRET biochemical assay
# Protocol: FGFR-1 TR-FRET Biochemical Assay
# The FGFR-1 Assay was performed on half well 96-well opaque plates (Costar 3915) in a LANCE format. LANCE is a homogenous time resolved fluormetry based application available through Perkin Elmer. For this assay, 50 uL reactions were set up using: 0.6 uM ATP (Sigma), 25 nM poly GT-biotin (CIS BIO International), 2 nM Eu-labelled phospho-Tyr Ab (PY20 PerkinElmer), 10 nM Streptavidin-APC (Perkin Elmer), 5 nM FGFR1-GST (generated by DRT, Bayer Healthcare), 1% DMSO, 50 mM HEPES pH 7.5, 10 mM MgCl2, 0.1 mM EDTA, 0.015% Brij, 0.1 mg/ml BSA, 0.1% B-mercaptoethanol. All reactions were initiated with the addition of enzyme and were left to incubate for one hour at room temperature. Time-resolved fluorescence was then read on a Perkin Elmer VictorV Multilabel counter. The reading protocol uses an excitation wavelength at 340 nm and emission reads at both 615 and 665 nm. Signal was calculated as a ratio: (Fluorescence at 665 nm/Fluorescence at […])*10000 for each well. The background control used for this assay is the signal produced with all assay components excluding ATP. For IC50 generation, compounds were added prior to the enzyme initiation. A 50-fold stock plate was made with compounds serially diluted 1:5 in a 50% DMSO/50% dH2O solution. A 1 μL addition of the stock to the assay wells gave final compound concentrations ranging from 10 μM −0.128 nM in 1% DMSO. The data were expressed as percent inhibition: % inhibition=100−((Signal with inhibitor-background)/(Signal without inhibitor−background))*100.
# T1 sequence (P11362 22-822): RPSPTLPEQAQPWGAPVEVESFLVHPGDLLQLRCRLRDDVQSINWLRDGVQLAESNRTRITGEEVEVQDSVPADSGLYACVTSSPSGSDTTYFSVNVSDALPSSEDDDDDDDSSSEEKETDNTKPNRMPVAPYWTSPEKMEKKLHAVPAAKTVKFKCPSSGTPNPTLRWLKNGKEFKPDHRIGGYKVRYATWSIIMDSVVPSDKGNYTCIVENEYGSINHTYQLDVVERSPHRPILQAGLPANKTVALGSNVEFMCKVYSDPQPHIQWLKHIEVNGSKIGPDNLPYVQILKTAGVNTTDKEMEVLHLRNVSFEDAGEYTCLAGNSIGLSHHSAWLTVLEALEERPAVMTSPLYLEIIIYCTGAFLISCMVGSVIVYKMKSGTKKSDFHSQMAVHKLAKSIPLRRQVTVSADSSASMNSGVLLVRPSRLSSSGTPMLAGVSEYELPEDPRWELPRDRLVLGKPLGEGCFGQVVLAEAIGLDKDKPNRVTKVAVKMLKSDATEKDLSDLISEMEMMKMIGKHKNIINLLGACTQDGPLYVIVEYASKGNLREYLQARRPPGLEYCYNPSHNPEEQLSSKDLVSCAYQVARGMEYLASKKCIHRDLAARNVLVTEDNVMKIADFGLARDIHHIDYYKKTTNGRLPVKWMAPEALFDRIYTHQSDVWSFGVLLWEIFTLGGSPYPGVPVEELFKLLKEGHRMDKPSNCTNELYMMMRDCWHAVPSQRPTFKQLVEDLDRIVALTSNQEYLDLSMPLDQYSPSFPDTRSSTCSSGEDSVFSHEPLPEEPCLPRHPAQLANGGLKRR
SMILES,IC50 (bounds given in nM),IC50 (upper bound in μM)
"Nc1ncnn2c(CN3CCOCC3)c(/C=N/O)c(-c3ccc(NC(=O)Nc4cc(C(F)(F)F)ccc4F)cc3)c12 [Example 102, N-4-[4-amino-6-[(E)-(hydroxyimino)methyl]-7-(morpholin-4-ylmethyl)pyrrolo[2,1-f][1,2,4]triazin-5-yl]phenyl-N′-[2-fluoro-5-(trifluoromethyl)phenyl]urea]",< 10 nM,–
"Cc1c(-c2ccc(NC(=O)Nc3cc(C(F)(F)F)ccc3F)cc2)c2c(N)ncnn2c1CN1CCCOCC1 [Example 117, N-{4-[4-amino-6-methyl-7-(1,4-oxazepan-4-ylmethyl)pyrrolo[2,1-f][1,2,4]triazin-5-yl]phenyl}-N′-[2-fluoro-5-(trifluoromethyl)phenyl]urea]",< 10 nM,–
"CC(=O)c1c(-c2ccc(NC(=O)Nc3ccc(OC(F)(F)F)cc3)c(F)c2)c2c(N)ncnn2c1CN1CCOCC1 [Example 59, N-4-[6-acetyl-4-amino-7-(morpholin-4-ylmethyl)pyrrolo[2,1-f][1,2,4]triazin-5-yl]-2-fluorophenyl-N′-[4-(trifluoromethoxy)phenyl]urea]",10 to 100 nM,–
"N#CCc1c(-c2ccc(NC(=O)Nc3cc(C(F)(F)F)ccn3)cc2)c2c(N)ncnn2c1CN1CCOCC1 [Example 63, N-{4-[4-amino-6-(cyanomethyl)-7-(morpholin-4-ylmethyl)-pyrrolo[2,1-f][1,2,4]triazin-5-yl]phenyl}-N′-[4-(trifluoromethyl)-pyridin-2-yl]urea]",< 10 nM,–
"COCc1c(-c2ccc(NC(=O)Nc3cc(C(F)(F)F)ccc3F)cc2)c2c(N)ncnn2c1C#N [Example 11, N-4-[4-amino-7-cyano-6-(methoxy-methyl)pyrrolo[2,1-f][1,2,4]triazin-5-yl]phenyl-N′-[2-fluoro-5-(trifluoromethyl)-phenyl]urea]",> 100 nM,< 1000 nM
"Cc1cc(-c2c(C)c(CN3CCCOCC3)n3ncnc(N)c23)ccc1NC(=O)Nc1cc(C(F)(F)F)ccn1 [Example 124, N-{4-[4-amino-6-methyl-7-(1,4-oxazepan-4-ylmethyl)pyrrolo[2,1-f][1,2,4]triazin-5-yl]-2-methylphenyl}-N′-[4-(trifluoromethyl)pyridin-2-yl]urea]",< 10 nM,–
"Nc1ncnn2c(CN3CCOCC3)c(Cl)c(-c3ccc(NC(=O)Nc4cc(C(F)(F)F)ccc4F)c(F)c3)c12 [Example 152, N-{4-[4-amino-6-chloro-7-(morpholin-4-ylmethyl)pyrrolo[2,1-f][1,2,4]triazin-5-yl]-2-fluorophenyl}-N′-[2-fluoro-5-(trifluoromethyl)-phenyl]urea]",10 to 100 nM,–
"N#Cc1c(C(=O)O)c(-c2ccc(NC(=O)Nc3cc(C(F)(F)F)ccn3)cc2)c2c(N)ncnn12 [Example 8, 4-amino-7-cyano-5-{4-[({[4-(trifluoromethyl)pyridin-2-yl]amino}carbonyl)amino]phenyl}pyrrolo[2,1-f][1,2,4]triazine-6-carboxylic acid]",> 100 nM,< 1000 nM
"Nc1ncnn2c(CN3CCOCC3)c(-c3cnco3)c(-c3ccc(NC(=O)Nc4cccc(OC(F)(F)F)c4)cc3)c12 [Example 28, N-4-[4-amino-7-(morpholin-4-ylmethyl)-6-(1,3-oxazol-5-yl)pyrrolo[2,1-f][1,2,4]triazin-5-yl]phenyl-N′-[3-(trifluoromethoxy)-phenyl]urea]",< 10 nM,–
"CCC(=O)c1c(-c2ccc(NC(=O)Nc3cc(C(F)(F)F)ccn3)cc2)c2c(N)ncnn2c1CN1CCOCC1 [Example 90, N-{4-[4-amino-7-(morpholin-4-ylmethyl)-6-propionylpyrrolo[2,1-f][1,2,4]triazin-5-yl]phenyl}-N′-[4-(trifluoromethyl)-pyridin-2-yl]urea]",10 to 100 nM,–
"Nc1ncnn2c(CN3CCOCC3)c(Cl)c(-c3ccc(NC(=O)Nc4cccc(C(F)(F)F)c4)c(Cl)c3)c12 [Example 160, N-{4-[4-amino-6-chloro-7-(morpholin-4-ylmethyl)pyrrolo[2,1-f][1,2,4]triazin-5-yl]-2-chlorophenyl}-N′-[3-(trifluoromethyl)phenyl]urea]",10 to 100 nM,–
"CC(C)(C)C(=O)c1c(-c2ccc(NC(=O)Nc3cc(C(F)(F)F)ccn3)cc2)c2c(N)ncnn2c1CN1CCOCC1 [Example 92, N-{4-[4-amino-6-(2,2-dimethylpropanoyl)-7-(morpholin-4-ylmethyl)pyrrolo[2,1-f][1,2,4]triazin-5-yl]phenyl}-N′-[4-(trifluoromethyl)-pyridin-2-yl]urea]",> 100 nM,< 1000 nM
"CC(=O)c1c(-c2ccc(NC(=O)Nc3cc(C(F)(F)F)ccn3)cc2)c2c(N)ncnn2c1CN1CCN(C)CC1 [Example 96, N-(4-{6-acetyl-4-amino-7-[(4-methylpiperazin-1-yl)methyl]pyrrolo[2,1-f][1,2,4]triazin-5-yl}phenyl)-N′-[4-(trifluoromethyl)-pyridin-2-yl]urea]",10 to 100 nM,–
COCc1c(-c2ccc(NC(=O)Nc3cccc(C(F)(F)F)n3)cc2)c2c(N)ncnn2c1CN1CCOCC1 [Example 50],> 100 nM,< 1000 nM
"COCc1c(-c2ccc(NC(=O)Nc3cc(C)ccc3F)c(F)c2)c2c(N)ncnn2c1CN1CCOCC1 [Example 131, N-{4-[4-amino-6-(methoxymethyl)-7-(morpholin-4-ylmethyl)-pyrrolo[2,1-f][1,2,4]triazin-5-yl]-2-fluorophenyl}-N′-(2-fluoro-5-methyl-phenyl)urea]",< 10 nM,–
"CN1CCN(Cc2c(CC#N)c(-c3ccc(NC(=O)Nc4cc(C(F)(F)F)ccc4F)cc3)c3c(N)ncnn23)CC1 [Example 74, N-(4-{4-amino-6-(cyanomethyl)-7-[(4-methylpiperazin-1-yl)methyl]pyrrolo[2,1-f][1,2,4]triazin-5-yl}phenyl)-N′-[2-fluoro-5-(trifluoromethyl)phenyl]urea]",10 to 100 nM,–
"COCc1c(-c2ccc(NC(=O)Nc3cc(C(F)(F)F)ccc3F)cc2)c2c(N)ncnn2c1CN1CCN(C(C)=O)CC1 [Example 21, N-{4-[7-[(4-acetylpiperazin-1-yl)methyl]-4-amino-6-(methoxymethyl)pyrrolo[2,1-f][1,2,4]triazin-5-yl]phenyl}-N′-[2-fluoro-5-(trifluoromethyl)phenyl]urea]",10 to 100 nM,–
"CC(=O)c1c(-c2ccc(NC(=O)Nc3cc(C(F)(F)F)ccc3F)cc2)c2c(N)ncnn2c1CN1CCOCC1 [Example 105, N-4-[6-acetyl-4-amino-7-(morpholin-4-ylmethyl)pyrrolo[2,1-f][1,2,4]triazin-5-yl]phenyl-N′-[2-fluoro-5-(trifluoromethyl)phenyl]urea]",< 10 nM,–
"COCc1c(-c2ccc(NC(=O)Nc3cc(C(F)(F)F)ccc3F)c(F)c2)c2c(N)ncnn2c1CN1CCS(=O)(=O)CC1 [Example 43, N-{4-[4-amino-7-[(1,1-dioxidothiomorpholin-4-yl)methyl]-6-(methoxymethyl)pyrrolo[2,1-f][1,2,4]triazin-5-yl]-2-fluorophenyl}-N′-[2-fluoro-5-(trifluoromethyl)phenyl]urea]",10 to 100 nM,–
"COCc1c(-c2ccc(NC(=O)Nc3cc(C(F)(F)F)ccc3F)cc2)c2c(N)ncnn2c1CN1CCCC1 [Example 14, N-{4-[4-amino-6-(methoxymethyl)-7-(pyrrolidin-1-ylmethyl)pyrrolo[2,1-f][1,2,4]triazin-5-yl]phenyl}-N′-[2-fluoro-5-(trifluoromethyl)phenyl]urea]",10 to 100 nM,–

# From US8829185B2 (Bayer HealthCare LLC, priority 2005, dated 2014)
